Measurements: patent US11980596B2 (priority 2017, dated 2024)

Legend:
[1] = test system: elderly subjects with TRD; assay type: in vivo, human; details: each dosing day
Text: The Modified Observer's Assessment of Alertness/Sedation (MOAA/S) was used to measure treatment-emergent sedation with correlation to levels of sedation defined by the American Society of Anesthesiologists (ASA) continuum. The MOAA/S scores range from 0 (No response to painful stimulus; corresponds to ASA continuum for general anesthesia) to 5 (Readily responds to name spoken in normal tone [awake]; corresponds to ASA continuum for minimal sedation). The proportion of subjects with sedation was <4% for the esketamine group for each dosing day.

[2] = 14-day; 54 mg/day
Protocol: This study includes a single dose and 14-day repeated dose neurotoxicity studies with intranasally administered esketamine in female rats 12 to 14 weeks of age. These studies were conducted to investigate whether single or repeated intranasal administrations of esketamine induced neurodegenerative changes in the rat brain. The study results were used to estimate an esketamine exposure-based safety margin compared with the maximum dose of esketamine administered intranasally to depressed adult patients in clinical trials.
Each group of main study animals consisted of 12 female rats. Four satellite animals were added to the esketamine HCl-dosed groups of main study animals for TK purposes. The plasma exposure to esketamine was measured in these animals on the first and the last day of dosing at various time points up to and including 24 hours after the first instillation.

glutamate NMDA receptor = details: cited from earlier work
[3] = Pre- and postnatal study, intranasal esketamine, pregnant rats; assay type: in vivo, rat; details: female, rat, in vivo, inhaled or intranasal; intranasal; pregnancy and lactation; read-out: NOAEL for maternal toxicity and decreased motor activity during the postweaning period
Protocol: (§1) This sensory/motor developmental measure was tested starting on postnatal day (PND) 9, and the effect normalized by PND 19 in treatment groups as compared with PND 14 for the majority of the control animals. There is no NOAEL for this delay in sensory/motor response observed in pups during the preweaning period.

pregnant rats and pups = assay: as above; assay type: in vivo, rat
Protocol: as §1

patients with TRD = assay: Dissociation by CADSS in SPRAVATO clinical trials (label); assay type: in vivo, human
Text: The most common psychological effects of SPRAVATO were dissociative or perceptual changes (including distortion of time, space and illusions), derealization and depersonalization (61% to 75% of SPRAVATO-treated patients developed dissociative or perceptual changes based on the Clinician Administered Dissociative Symptoms Scale) [see Adverse Reactions (6.1)]. Given its potential to induce dissociative effects, carefully assess patients with psychosis before administering SPRAVATO; treatment should be initiated only if the benefit outweighs the risk.
SPRAVATO can cause dissociative symptoms (including derealization and depersonalization) and perceptual changes (including distortion of time and space, and illusions). In clinical trials, dissociation was transient and occurred on the day of dosing. Dissociation was evaluated by adverse event reports and the Clinician-Administered Dissociative States Scale (CADSS) questionnaire. A CADSS total score of more than 4 indicates presence of dissociative symptoms, and such an increase to a score of 4 or more occurred in a higher number of patients on esketamine compared to placebo during the short-term trials (see Table 5).

subjects with TRD = assay type: in vivo, human; details: post dose
Protocol: Transient blood pressure increases peaked for the esketamine group at approximately 40 minutes post dose and returned closer to predose levels by 1.5 hours post dose.

adult subjects with TRD = details: post dose
Protocol: The MOAA/S was used to measure treatment-emergent sedation, with correlation to levels of sedation defined by the American Society of Anesthesiologists (ASA) continuum. The MOAA/S scores range from 0=no response to painful stimulus (corresponds to ASA continuum for general anesthesia) to 5=readily responds to name spoken in normal tone (awake; corresponds to ASA continuum for minimal sedation).
On each intranasal dosing day, the MOAA/S was performed every 15 minutes from pre-dose to t=+1.5 hours post-dose. If the score was ≤3 at any time during the 1.5 hours post-dose interval, the MOAA/S was performed every 5 minutes until a score of 4 is reached (at which point a frequency of every 15 minutes can be resumed until t=+1.5 hours post dose). […] For subjects with a score of 4, the assessment was repeated every 15 minutes. […]
The Modified Observer's Assessment of Alertness/Sedation (MOAA/S) was used to measure treatment-emergent sedation with correlation to levels of sedation defined by the American Society of Anesthesiologists (ASA) continuum. The MOAA/S scores ranged from 0 (No response to painful stimulus; corresponds to ASA continuum for general anesthesia) to 5 (Readily responds to name spoken in normal tone [awake]; corresponding to ASA continuum for minimal sedation).

[4] = Fertility study in male and female rats; assay type: in vivo, rat; details: both sexes, rat, in vivo, inhaled or intranasal; read-out: NOAEL for mating and fertility
Protocol: (§2) The No Observed Adverse Effect Level (NOAEL) for mating and fertility is 45 mg/kg/day which is 0.6 times the esketamine exposures at MRHD of 84 mg/day.

male and female rats = assay: Fertility study in male and female rats; assay type: in vivo, rat
Protocol: as §2

[5] = test system: subjects with MDD at imminent risk for suicide; assay: Beck Scale for Suicidal Ideation (BSS) ([…]2001); assay type: in vivo, human
Protocol: The BSS is a 21-item self-reported instrument to detect and measure the severity of suicidal ideation in adults and adolescents aged 17 years and older. The BSS total score represents the severity of suicide ideation, and it is calculated by summing the ratings of the first 19 items; the total score ranges from 0 to 38, with a higher score representing greater suicide ideation. Increasing scores reflect increases in suicidal risk.

[6] = test system: patients with treatment-resistant depression (TRD); assay: CADSS (Example 7); details: human, in vivo, other: intranasal
Protocol: Adverse events were monitored throughout the study. Other safety assessments (i.e., laboratory tests, vital signs, physical examination) were performed at pre-specified time points. Vital signs, the Clinician Administered Dissociative States Scale (CADSS; Bremner, “Measurement of dissociative states with the clinician-administered dissociative states scale (CADSS)”, J. Traumatic Stress, 1998, 11(1):125-136), and the 4-item positive symptom subscale from the Brief Psychiatric Rating Scale (BPRS; Overall, “The Brief Psychiatric Rating Scale. Psychological Reports”, 1962, 10:799-812) were assessed pre-dose, at 40 minutes, and 2 hours post-dose.

adult female rats = assay: Second single dose neurotoxicity study (neuronal necrosis), intranasal esketamine (label); details: 200-gram rat
[7] = esketamine 84 mg minus placebo, ANCOVA LOCF
[8] = esketamine 84 mg, LOCF, ITT, N = 34
[9] = esketamine 84 mg, LOCF, ITT, N = 34, negative change = improvement
[10] = esketamine 84 mg, predose Day 1, ITT, N = 34

## CN[C@]1(c2ccccc2Cl)CCCCC1=O [esketamine, (S)-2-(2-chlorophenyl)-2-(methylamino)cyclohexanone]
[1]
  Proportion of subjects with sedation (post dose MOAA/S score of ≤3): < 4%
[2]
  AUC-based safety margin compared with the maximum 84 mg clinical dose: ~11 fold
  Cmax-based safety margin compared with the maximum 84 mg clinical dose: approximately 17 fold
Glutamate NMDA receptor
  Affinity for the glutamate NMDA receptor in vitro, fold greater than R-ketamine: 3 to 4 fold
[3]
  NOAEL: 4.5 mg/kg/day
Pregnant rats and pups; 4.5 mg/kg/day intranasal
  AUC exposure, multiple of the MRHD of 84 mg/day: 0.07 times
Pregnant rats and pups; 15 mg/kg/day intranasal
  AUC exposure, multiple of the MRHD of 84 mg/day: 0.5 times
Pregnant rats and pups; 45 mg/kg/day intranasal
  AUC exposure, multiple of the MRHD of 84 mg/day: 0.7 times
Patients with TRD; across studies
  Incidence of dissociation reported as severe in intensity: less than 4%
Patients with TRD; after dosing
  Dissociation symptoms typically resolved by: ≤ 1.5 h
Subjects with TRD
  Blood pressure returned closer to predose levels by: ≤ 1.5 h
  Time of peak of transient blood pressure increases: approximately 40 minutes
Adult subjects with TRD
  Sedation (MOAA/S) resolved by: ≤ 1.5 h
[4]
  NOAEL: 45 mg/kg/day
Male and female rats; 4.5 mg/kg/day intranasal
  Mean AUC exposure, multiple of the MRHD of 84 mg/day: approximately 0.05 times
Male and female rats; 15 mg/kg/day intranasal
  Mean AUC exposure, multiple of the MRHD of 84 mg/day: ~0.3 times
Male and female rats; 45 mg/kg/day intranasal
  Mean AUC exposure, multiple of the MRHD of 84 mg/day: ~0.6 times
[5]; 84 mg, Day 1: 4-hours postdose, Day 2 (DB), End Point (DB)
  BSS total score: change vs placebo: no statistically significant differences
[5]; [7]
  BSS total score, change to Day 1 (DB): 4H, Diff. of LS Means (SE): −2.3 (2.29)
  BSS total score, change to Day 2 (DB), Diff. of LS Means (SE): −1.9 (2.30)
  BSS total score, change to End Point (DB), Diff. of LS Means (SE): −1.7 (2.15)
[5]; [8]
  BSS total score, Day 2 (DB), Median (Range): 13.0 (0; 34)
  BSS total score, End Point (DB), Mean (SD): 4.7 (9.03)
  BSS total score, End Point (DB), Median (Range): 0.0 (0; 34)
[5]; [9]
  BSS total score, Change from Baseline to Day 1 (DB): 4H, Median (Range): −8.0 (−33; 8)
  BSS total score, Change from Baseline to End Point (DB), Median (Range): −21.0 (−33; 8)
[5]; [10]
  BSS total score, Baseline (DB), Mean (SD): 24.0 (5.45)
  BSS total score, Baseline (DB), Median (Range): 25.0 (8; 33)
[6]
  Perceptual changes/dissociative symptoms (CADSS): time of peak: 30 to 40 min
Adult female rats
  Highest dose equivalent with no findings of neuronal necrosis: 270 mg/kg
